Assay results published in patent US20150094376A1, “Hexamethonium Reverses the Lethal Cardiopulmonary Damages in a Rat Model of Brain Stem Lesions Mimicking Fatal Enterovirus 71 Encephalitis” (Kaohsiung Veterans General Hospital, priority 2013, published 2015).

Assays:
Assay type in all cases: in vivo, Sprague Dawley rats
[1] = system: rats with bilateral 6-OHDA lesions of the NTS; experiment: Lung histopathology and immunohistochemistry (H&E, PMN, connexin 43) in rats with 6-OHDA lesions; conditions: n=6 per group
Procedure: (§1) The third set of experiments (intervention-treatment and control-treatment groups) was to infuse the ganglionic blocker (hexamethonium (Sigma), 25 mg/kg, iv) via the femoral vein at the time point of 10 minutes after NTS lesion to record BP and HR in trend (n=6 in each group) and the rats respectively were sacrificed at the time point (0, 3, 6 and 12 hours) for analyzing the parameters as discussed in the second set of experiments.
(§2) For hematoxylin and eosin staining, the rat brain, heart, and lungs were excised immediately after blood sampling. They were rinsed with saline, free from blood or fatty tissue, lightly blotted with filter paper, and then were placed in 10% formalin for five days and blocked, embedded in paraffin, cut in 4 μm sections, and stained with hematoxylin and eosin.
(§3) Immunohistochemical analysis (troponin T and brain natriuretic peptide in heart tissue, neutrophil cell in lung tissue, and connexin 43 assays in the lung and heart tissues) was performed on the sections after the paraffin was melted in an oven at 70° C. for one hour. The sections were deparaffinized, microwaved in citric buffer (10 mmol/L, pH 6.0), blocked in 3% goat serum, and incubated with anti-cardiac troponin T antibody (1:200; Abeam), anti-myosin VIIa antibody (1:200; Abeam), anti-brain natriuretic peptide polyclonal antibody (1:1000; Thermo Fisher Scientific Inc.), anti-neutrophil elastase antibody (1:400; Abeam), and anti-connexin 43/GJA1 antibody (1:200; Abcam) overnight at 4° C. Next, the sections were incubated with biotinylated secondary antibodies (1:200; Vector Laboratories, Burlingame, Calif., USA) for one hour and in AB complex (1:100) for 30 minutes at room temperature. The sections were visualized with a DAB substrate kit (Vector Laboratories) and counterstained with hematoxylin. The sections were then photographed with a microscope mounted with a charge-coupled device camera.

[2] = system: rats with bilateral 6-OHDA lesions of the NTS; experiment: BP and HR recording and survival in rats with 6-OHDA lesions of the NTS (rat model mimicking fatal EV 71 encephalitis); conditions: for survival time after NTS lesion: n=6, 6-OHDA rats died within 7 hours
From the text: (§4) Three sets of experiments were designed according to the three specific aims mentioned above. The first set of experiments was to establish a rat model by micro-injecting 6-hydroxydopamin (6-OHDA) into NTS leading to acute fulminating hypertension and pulmonary hemorrhagic edema. We recorded the blood pressure (BP) and heart rate (HR) in trend. Two groups of rats (n=6 in each group) were studied: 1) an intervention group in which 6-OHDA (Sigma, […]) dissolved in vehicle (0.8% ascorbic acid in saline) was injected into NTS bilaterally; and 2) a control group that received injections of equal volumes of vehicle alone. Each group of rats was anesthetized with urethane (1 g/kg, i.p.) and connected to oscillator circuits for BP and HR recording via […]. For microinjections into the NTS, the rats were anesthetized and placed in a stereotaxic frame; then the dorsal surface of the medulla was exposed. A glass cannula was filled with L-glutamate (0.154 mmol/60 n1) to functionally identify the NTS.
as §1

[3] = system: rats with bilateral 6-OHDA lesions of the NTS; experiment: Echocardiography in rats with 6-OHDA lesions
Procedure: After the first set of the rat model was established, the second set of experiments intended to determine some time points for analysis. Rats were anesthetized with pentobarbital (50 mg/kg, ip) before NTS lesion. After surgery (lesion of the NTS), the wounds were closed and the rats were removed from the stereotaxic frame for further observation. Each rat was placed in a small cage and woken within 30 minutes for free activity. The rat were respectively sacrificed (intervention and control group, n=6 in each group) at different time point (0, 3 and 6 hours) for analyzing histopathology and biochemistry from blood, brain, heart and lung. Before sacrificing, echocardiography was performed to exanimate left ventricular (LV) wall thickness and cardiac function.
as §1
Rats were immobilized and shaved on the chest for echocardiographic examinations using commercially available equipment (Vivid 7, GE Ultrasound, Horten, Norway) equipped with 10-MHz phased array transducers. All the records were stored digitally as two-dimensional cine loops and analyzed with customized dedicated research software (Echo PAC, GE Ultrasound, Horten, Norway). Two-dimensionally guided M-mode recordings were obtained from the parasternal short-axis view at a depth of 2 cm at the level of the papillary muscles. M-Mode tracing were recorded at a speed of 200 mm/s. The measurements were made using the method of the American Society of Echocardiography and the parameters were measured digitally on the M-mode tracing and averaged from 5 consecutive cardiac cycles.

[4] = system: rats with bilateral 6-OHDA lesions of the NTS; experiment: Heart histopathology and immunohistochemistry (H&E, troponin T, BNP, connexin 43) in rats with 6-OHDA lesions
Procedure: as §1, §2, §3

[5] = system: rats with bilateral 6-OHDA lesions of the NTS; experiment: Pulmonary edema index and gross lung specimens in rats with 6-OHDA lesions; conditions: n=6 per group
Procedure: as §1
After the blood-sampled rats were sacrificed, the chest each of the rats was opened to remove the lung and the heart, and then the skull was opened for NTS tissue. To estimate the liquid accumulation in the lungs, both lungs were weighted, then dried in an oven at 80° C. for two days and weighted as dry lung weight. The total weight/body multiplies by 100 and wet-to-dry lung weight ratio were calculated for indicating the degree of pulmonary edema.

[6] = system: rats with bilateral 6-OHDA lesions of the NTS; experiment: Epinephrine and norepinephrine levels by enzyme immunoassay in rats with 6-OHDA lesions
Procedure: as §1
All blood samples were collected into micro-tubes and placed immediately into to an ice bath. The samples, then, were centrifuged at 10000 rpm for 20 minutes at 4° C. Aliquots of plasma were removed and stored at −80° C. until assayed for content of epinephrine and norepinephrine within four weeks utilizing enzyme immunoassay for the high-sensitive quantitative determination by Labor Diagnostika Nord-Medicrop Inc.

[7] = system: control rats with NTS microinjected with vehicle; experiment: BP and HR recording in control-treatment group (vehicle injected into NTS, then hexamethonium); conditions: no 6-OHDA lesion; hexamethonium 25 mg/kg iv
From the text: as §4, with “NTS. […]” for “NTS.”

C[N+](C)(C)CCCCCC[N+](C)(C)C [hexamethonium]
increased infiltrates of red blood cells and formation of hyaline membrane in lung (H&E) ([1]; 3 hours and 6 hours, FIG. 5A): prevented | increased expressions of connexin 43 in lung ([1]; 3 hours and 6 hours, FIG. 5C): attenuated | increased infiltrates of PMN in lung ([1]; 6 hours, FIG. 5B): reduced | HR at 3 hours ([2]; 25 mg/kg iv 10 minutes after 6-OHDA lesion, 3 hours): no significant reduction in HR | HR immediately after hexamethonium ([2]; 25 mg/kg iv 10 minutes after 6-OHDA lesion, immediately): a reduction in HR | acute hypertension induced by 6-OHDA lesions ([2]; hexamethonium 25 mg/kg iv 10 minutes after NTS lesion, FIG. 1B): reversed | acute high rise in mean blood pressure (MBP) caused by 6-OHDA lesions ([2]; hexamethonium 25 mg/kg iv 10 minutes after NTS lesion, FIG. 1C, n=6 per group): significantly reversed | survival time after NTS lesion ([2]; hexamethonium 25 mg/kg iv 10 minutes after NTS lesion): at least 14 hours | survival time after NTS lesion ([2]; hexamethonium 25 mg/kg iv 10 minutes after NTS lesion, listed as Hexamethonium): more than 14 hours | labored breathing ([2]; hexamethonium 25 mg/kg iv 10 minutes after NTS lesion, up to 14 hours post NTS lesion): did not exhibit significantly labored breathing until 14 hours | acute increase in fraction shortening ([3]; 3 hours): attenuated or reversed | decrease in the LV internal dimension in diastole and systole ([3]; 3 hours and 6 hours): reversed or attenuated | acute decrease in cardiac output after 6-OHDA lesions ([3]; 3 hours and 6 hours, FIG. 2E): prevented | acute increase in ejection fraction ([3]; 3 hours, FIG. 2F): attenuated or reversed | acute increase in LV wall thickness ([3]; 3 hours, FIGS. 2G and 2H): attenuated or reversed | increase of irregular wavy fibers with increased eosinophilic staining of the cytoplasm and contraction bands necrosis in heart (H&E) ([4]; 3 hours and 6 hours, FIG. 3A, n=6 per group): prevented | increased BNP staining in the cytoplasm (heart) ([4]; 3 hours and 6 hours, FIG. 3C, n=6 per group): reduced | increased and strong expressions of connexin 43 in heart muscle ([4]; 3 hours and 6 hours, FIG. 3D, n=6 per group): reduced | increased expression of cardiac troponin T ([4]; 6 hours, FIGS. 3B and 3E, n=4 per group): reduced | mild and severe lung congestion (gross lungs) ([5]; 3 hours and 6 hours, FIG. 4A): prevented | increased wet-to-dry lung weight ratio (W/D) ([5]; 6 hours, FIG. 4B): reversed | increased total lung/body weight (BW) ([5]; 6 hours, FIG. 4C): reversed | level of epinephrine at 6 hours, 6-OHDA vs 6-OHDA+Hexamethonium ([6]; 6 hours): no significant differences | level of norepinephrine at 6 hours, 6-OHDA vs 6-OHDA+Hexamethonium ([6]; 6 hours): no significant differences | acute high rise of epinephrine serum level post 6-OHDA lesions ([6]; within 3 hours after hexamethonium treatment, FIG. 1D, n=6 per group): significantly lowered | acute high rise of norepinephrine serum level post 6-OHDA lesions ([6]; within 3 hours after hexamethonium treatment, FIG. 1E, n=6 per group): significantly lowered | HR in control-treatment group [7]: no associated significant change in HR | mean blood pressure in control-treatment group [7]: significantly decreased
